Data taken from ChEMBL document CHEMBL1201862, “PubChem BioAssay data set” (2004).
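Briefly, cells in 96-well plates were exposed to five compound concentrations for 48 h, and endpoints were estimated by linear interpolation. Abbreviation: GI50, concentration required for 50% inhibition of growth.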 The source made the active and inactive calls. Rule as the data show it: active = GI50 up to about 1.1 µM and inactive = higher.

What was measured:
Experiment in all cases: DTP human tumour cell line panel, 48 h
BT-549 = test system: BT-549
CCRF-CEM = test system: CCRF-CEM
DU-145 = test system: DU-145
EKVX = test system: EKVX
HCT-15 = test system: HCT-15
IGROV-1 = test system: IGROV-1
KM12 = test system: KM12
MCF7 = test system: MCF7
MDA-N = test system: MDA-N
NCI-H23 = test system: NCI-H23
NCI/ADR-RES = test system: NCI/ADR-RES
OVCAR-3 = test system: OVCAR-3
OVCAR-5 = test system: OVCAR-5
SF-268 = test system: SF-268
SF-295 = test system: SF-295
SK-MEL-5 = test system: SK-MEL-5
SNB-75 = test system: SNB-75
U-251 = test system: U-251
UACC-257 = test system: UACC-257
UACC-62 = test system: UACC-62

How did the GI50 (BT-549) turn out when Cc1c2cccc-2ccc2c1[nH]c1ccccc12 was run?
Its GI50 is 3.24 µM (inactive).

What about the GI50 (CCRF-CEM) of the same compound?
The GI50 was 1.27 µM (inactive).

And the GI50 (DU-145)?
Its GI50 is 4.55 µM (inactive).

And the GI50 (EKVX)?
The GI50 was 1.45 µM (inactive).

And the GI50 (HCT-15)?
Its GI50 is 2.58 µM.

What about the GI50 (IGROV-1) of the same compound?
The GI50 was 2 µM (inactive).

And the GI50 (KM12)?
Its GI50 is 2.34 µM (inactive).

And the GI50 (MCF7)?
Its GI50 is 3.06 µM (inactive).

What about the GI50 (MDA-N) of the same compound?
The GI50 was 1.97 µM (inactive).

What about the GI50 (NCI-H23) of the same compound?
Its GI50 is 2.77 µM (inactive).

And the GI50 (NCI/ADR-RES)?
The GI50 was 3.34 µM (inactive).

What about the GI50 (OVCAR-3) of the same compound?
Its GI50 is 2.47 µM (inactive).

And the GI50 (OVCAR-5)?
Its GI50 is 2.12 µM (inactive).

What about the GI50 (SF-268) of the same compound?
The GI50 was 2.04 µM (inactive).

And the GI50 (SF-295)?
Its GI50 is 2.38 µM (inactive).

And the GI50 (SK-MEL-5)?
The GI50 was 1.79 µM (inactive).

What about the GI50 (SNB-75) of the same compound?
Its GI50 is 2.14 µM (inactive).

What about the GI50 (U-251) of the same compound?
Its GI50 is 1.66 µM (inactive).

And the GI50 (UACC-257)?
Its GI50 is 1.68 µM (inactive).

And the GI50 (UACC-62)?
The GI50 was 1.91 µM (inactive).

How did the GI50 (BT-549) turn out when CC1=Nc2c(O)nc(S)nc2NC(c2c(Cl)cccc2Cl)C1 (stereo not given) was run?
Its GI50 is 1.24 µM (inactive).

And the GI50 (CCRF-CEM)?
The GI50 was 0.275 µM (active).

And the GI50 (DU-145)?
Its GI50 is 1.95 µM (inactive).

What about the GI50 (EKVX) of the same compound?
Its GI50 is 7.18 µM (inactive).

What about the GI50 (HCT-15) of the same compound?
Its GI50 is 3.05 µM.

And the GI50 (IGROV-1)?
The GI50 was 2.36 µM (inactive).

What about the GI50 (KM12) of the same compound?
Its GI50 is 1.75 µM (inactive).

And the GI50 (MCF7)?
The GI50 was 1.13 µM (inactive).

And the GI50 (MDA-N)?
Its GI50 is 0.552 µM (active).

What about the GI50 (NCI-H23) of the same compound?
The GI50 was 2.65 µM (inactive).

And the GI50 (NCI/ADR-RES)?
The GI50 was 0.193 µM (active).

What about the GI50 (OVCAR-3) of the same compound?
Its GI50 is 1.58 µM (inactive).

What about the GI50 (OVCAR-5) of the same compound?
The GI50 was 5.83 µM (inactive).

What about the GI50 (SF-268) of the same compound?
Its GI50 is 1.57 µM (inactive).

And the GI50 (SF-295)?
The GI50 was 1.61 µM (inactive).

What about the GI50 (SK-MEL-5) of the same compound?
The GI50 was 3.58 µM (inactive).

And the GI50 (SNB-75)?
Its GI50 is 3.34 µM (inactive).

And the GI50 (U-251)?
Its GI50 is 0.993 µM (active).

And the GI50 (UACC-257)?
Its GI50 is 3.07 µM (inactive).

What about the GI50 (UACC-62) of the same compound?
The GI50 was 1.78 µM (inactive).
